Assays:
HepG2 cells [1] = assay: cell death, FITC Annexin V kit, flow cytometry; assay type: cell-based, human; details: 40 μM, 12 h
Method: Fig. 4 CH004 arrests the cell cycle at the S phase. a CH004 reduces the cell viability of HEK293T and HepG2 cells. HEK293T or HepG2 cells were treated with indicated concentrations of CH004 for 24 h before the cell number was analyzed using the CellTiter96® Aqueous One Solution Cell Proliferation Assay (Promega, Materials and Methods). The means at each concentration of one representative experiment are shown as percentages of DMSO (control, 100%). Means ± SDs (n = 3). b Overexpression of hCBS or knock-down of hCBS counteracts the growth inhibition exerted by CH004 in HEK293T cells. Indicated HEK293T stable cell lines were treated with the CH004 or DMSO for 24 h. Then, the cell viability was quantified with the CellTiter 96® Aqueous One Solution Cell Proliferation Assay under the standard protocol (Promega). […] The efficacy for CBS overexpression and knock-down in HEK293T cells was determined by Western blotting using an anti-CBS antibody (3E1, 1:2000; Abnova). c CH004 induces cell death in HEK293T and HepG2 cells. […] HEK293T cells were incubated with indicated compounds for 12 h, and the DNA content was quantified with propidium iodide to analyze the cell cycle distribution by flow cytometry (e). The cell cycle distributions for HEK293T-shNT and HEK293T-shCBS cells were accordingly analyzed and are shown in f. […]

HEK293T cells = assay: total Hcys in HEK293T cells (ELISA); assay type: cell-based; details: 5 or 10 μM, 12 h
Method: Fig. 3 The effect of CH004 on the activity of endogenous hCBS in cells. a CH004 dose-dependently elevates the levels of Hcys in HepG2 and HEK293T cells. HepG2 cells or HEK293T cells were incubated with indicated CH004 or DMSO (control) for 12 h. The amount of total Hcys in cells was measured by ELISA using Axis® Homocysteine EIA kit (IBL, AX51301) (“Materials and Methods” section). […] HepG2 cells were treated with indicated DMSO, CH004 or HA for 8 h before the staining with AzMC probe. The amount of the H2S (blue) was quantified and is shown in (c). Bars, 50 μm. Control (CTR), DMSO group (100%). A representative fluorescence image from three independent experiments is shown. Means ± SDS (n = 3). d CH004 elevates Hcys in the peripheral blood of rats. The total Hcys of the blood samples collected from the anesthetized rats at the 75 min time point (Materials and Methods) were quantified by ELISA (see above). Means ± SDS (n = 6).
HepG2 or HEK293T cells were seeded in poly-D-Lys-coated 6-well plates at a density of ∼ 5 × 10^5 cells per well for one day, treated with DMSO or various concentrations of compounds for another 12 h before the collection by scraping or trypsinization. […]

HepG2 cells [2] = assay: intracellular ROS (DCFH-DA, flow cytometry); assay type: cell-based, human; details: HepG2, 12 h
Method: Fig. 5 In situ reduction of CBS activity and H2S in mitochondria by CH004 is coupled with an increase of intracellular ROS. a, b CH004 dose-dependently elevates ROS levels in both HepG2 (a) and HEK293T cells (b). The cells were treated with CH004 for 12 h or with 1 mM H2O2 for 30 min before the staining with DCFH-DA (Molecular Probes) and the analyzsis by flow cytometry (“Materials and Methods” section). Means ± SDS (n = 3). […] HepG2 cells were incubated with indicated inhibitors for 8 h before staining with the mitochondria tracker Mito-tracker® Green (Invitrogen) and the AzMC probe. Cyan represents the colocalization of H2S (blue) and the mitochondria tracker (green). Bars: 50 μm. d hCBS co-localizes with the mitochondria in HepG2 and HEK293T cells. HepG2 and HEK293T cells were stained with an anti-CBS antibody (3E1, 1:200; Abnova) for hCBS (red), Mito-tracker® Green for the mitochondria (green) and DAPI for the nucleus (blue). […]
To investigate the intracellular ROS levels, HEK293T or HepG2 cells were seeded in 6-well plates for one day, then incubated with the indicated inhibitors and 1 mM H2O2 for 12 h and 30 min, respectively. After trypsinization and one wash in PBS, the collected cells were resuspended in PBS and incubated with 100 μM probe DCFH-DA for 30 min at 37 °C before being analyzed using an LSR Fortessa flow cytometer.

Cn1nc(Cc2ccccc2)nc2c(=O)n(C)c(=O)nc1-2 [CH004, 3-benzyl-1,6-dimethylpyrimido[5,4-e][1,2,4]triazine-5,7(1H,6H)-dione]
increase in cell death (HepG2 cells [1]): ~ 80% | increase of Hcys (HEK293T cells): ~ 2 fold | maximum increase of cellular ROS (HepG2 cells [2]): ~ 2 fold

From PMC6158189, “A pharmacological probe identifies cystathionine β-synthase as a new negative regulator for ferroptosis” (Cell Death & Disease, 2018)
